This is an account of results in US12655458B2, “Methods for cyclization of (poly)peptides comprising nγ-hydroxy- or Nγ-amino-L-asparagine” (priority 2021, dated 2026).

The target of series [1] is T1, MMP2 (Homo sapiens, UniProt P08253).
T1 construct: purchased Sigma-Aldrich
T1 sequence (P08253 110-660): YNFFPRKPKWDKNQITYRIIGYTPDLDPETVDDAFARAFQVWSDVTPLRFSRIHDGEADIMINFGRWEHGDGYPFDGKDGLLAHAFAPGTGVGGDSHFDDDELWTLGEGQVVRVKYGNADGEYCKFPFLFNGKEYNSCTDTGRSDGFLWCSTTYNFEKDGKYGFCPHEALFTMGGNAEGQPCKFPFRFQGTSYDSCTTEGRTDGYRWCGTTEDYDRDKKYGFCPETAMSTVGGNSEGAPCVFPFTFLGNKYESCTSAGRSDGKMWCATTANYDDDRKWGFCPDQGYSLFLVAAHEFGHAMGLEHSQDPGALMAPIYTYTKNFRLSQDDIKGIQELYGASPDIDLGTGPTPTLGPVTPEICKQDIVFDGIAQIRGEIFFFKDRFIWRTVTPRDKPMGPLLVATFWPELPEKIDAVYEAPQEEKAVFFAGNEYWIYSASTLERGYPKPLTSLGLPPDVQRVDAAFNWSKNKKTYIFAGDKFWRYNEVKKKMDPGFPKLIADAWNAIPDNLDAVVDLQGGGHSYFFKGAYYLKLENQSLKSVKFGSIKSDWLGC
Kind of series: MMPs inhibition assay (FRET substrate), MMP2. Type of series: biochemical. As to the method: The inhibitory activity of the peptides was determined by measuring the MMPs' protease activity towards a FRET substrate. 0.8 nM MMP2 or MMP9 (Sigma-Aldrich), 10 μM substrate (FAM-Lys-Pro-Leu-Gly-Leu-Lys(Dabcyl)-Ala-Arg-NH2, λex 490 nm; λem 520 nm) and various concentrations of the peptides (0.0001 μM-10 μM or 0.001 μM-100 μM) were used. The reactions were performed in 50 mM Tris-HCl buffer (pH 7.5) containing 150 mM NaCl, 10 mM CaCl2, 0.05% Brij35, at 37° C. MMP2 was pre-incubated with the peptide inhibitors for 10 min before adding the substrate. All the numbers were input into GraphPad Prism (GraphPad Software, San Diego) for IC50 calculation.

A short description of series [2]: Stability in human serum by HPLC analysis. Type of series: in vitro ADME. Conditions: 37° C. As to the method:
Peptides were mixed with human serum to a final concentration of 100 μM and incubated at 37° C. Aliquots of the sample were taken out at different time points and 10% TFA was added to quench all protease activities, followed by addition of 10% of DMSO. The solution mixture was centrifuged (11,000 g, 5 min, 4° C.) and the supernatant was analysed by RP-HPLC (15% buffer B-65% buffer B in 25 min) and ESI-MS. The quantity of the remaining peptides was determined by comparing their HPLC peak area with the initial peak area.

Series [3] relates to butelase-1. Kind of series: Kinetics of peptide cyclization by butelase-1. Type of series: biochemical, Clitoria ternatea. The following applies: for Kcat / Km: cyclization by butelase-1, 37° C., PBS pH 6.5. As to the method: (§1) Enzyme-meditated cyclization and ligation reactions were performed in 20 mM PBS buffer (pH 6.5) at 37° C. with 0.5 mM TCEP. The reaction was quenched by adding 20% TFA. The enzyme concentration was determined by the absorbance at 280 nm using Nanodrop. The reactions were monitored by reverse-phase analytical HPLC, and the products were characterized by MALDI-MS or ESI-MS.
Sequence of butelase-1 (as listed by the source): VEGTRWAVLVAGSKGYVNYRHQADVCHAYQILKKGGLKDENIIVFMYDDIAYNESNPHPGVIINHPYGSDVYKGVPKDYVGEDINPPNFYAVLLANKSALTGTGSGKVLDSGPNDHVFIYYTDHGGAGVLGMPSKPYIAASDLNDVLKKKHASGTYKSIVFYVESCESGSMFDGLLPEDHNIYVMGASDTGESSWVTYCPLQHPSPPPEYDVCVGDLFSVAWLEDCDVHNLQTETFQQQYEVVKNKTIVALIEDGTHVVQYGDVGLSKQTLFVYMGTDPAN
(§2) Model peptides (1-6, see Table 51) were used in the kinetic studies. The cyclization reaction was performed in 20 mM PBS buffer (pH 6.5) containing 0.5 mM TCEP, at 37° C. The reaction was monitored by analytical RP-HPLC (5% buffer B-45% buffer B in 20 min). Kinetic constants for these peptides were obtained from the initial reaction rates. To ensure that the measurement of reaction rate was in the range of the initial velocity, the reaction was quenched using 20% TFA, when less than 25% of the substrate has been converted. Each recorded value is an average of measurements in triplicate. All the numbers were input into GraphPad Prism (GraphPad Software, San Diego) to obtain the Michaelis-Menten curve and calculate the kinetic parameters (kcat and Km).
Plant flowers of Clitoria ternatea grown in the Nanyang Technological University Herb Garden were collected. Butelase-1 was extracted using a chromatography method described previously.^5 Purified butelase-1 was obtained and stored at 4° C. or −80° C. in 50 mM sodium phosphate buffer (pH 6.0) containing 1 mM EDTA, 5 mM β-mercaptoethanol, 0.01% Tween 20 and 20% sucrose.

Series [4] concerns VyPAL2. Kind of series: Kinetics of peptide cyclization by VyPAL2. Type of series: biochemical. Conditions: for Kcat / Km: cyclization by VyPAL2, 37° C., PBS pH 6.5. As to the method:
as §1, §2
VyPAL2 was expressed using sf9 insect cells as described previously (Hemu et al. PNAS, 2019, 116, 11737-11746). 100 mL of the viral vector containing VyPAL2 gene was used to infect sf9 cells at cell density of 2.5×10^6 cells/mL. MOI for infection was set between 1-10 for protein expression. The culture was incubated at 27° C. shaker for 3 days (72 hours) at 135 rpm. Protein purification was performed in three steps: Immobilized Metal Affinity Chromatography (IMAC), Ion-Exchange Chromatography (IEX), and Size-Exclusion chromatography (SEC). Pro-VyPAL2 was activated at pH 5 in 50 mM sodium citrate buffer (0.1 M NaCl, 1 mM DTT, 0.5 mM LS) for 2-3 h at 37° C. After activation, the activated enzyme was purified by SEC at pH 6.5 (20 mM PBS, 0.1 M NaCl, 1 mM DTT).

The test system of series [5] is butelase-1. The experiment in a line: Inhibitory activity assay of AN(Me)12-HV 7 on butelase-1 cyclization of pB1 peptide. Type of series: biochemical, Clitoria ternatea. Conditions: 200 μM pB1, 0.001 eq butelase-1, pH 6.5, 37° C., 10 min; increasing concentration of peptide 7. The method, then:
FIG. 7. Inhibitory activity assay of AN(Me)12-HV 7. (a) RP-HPLC trace for cyclization of pB1 peptide ([…]; SEQ ID NO:13). The cyclization reaction was performed at 37° C. in the present of 200 μM of peptide substrates and 0.001 eq of butelase-1 in 20 mM PBS (pH 6.5) for 10 min. The reactions were monitored by RP-HPLC. The cyclic peptide is labelled as c[pB1] and starred HPLC peak is the potentially inhibitory peptide AN(Me)12-HV 7. […] (b) MALDI profiles of pB1 and AN(Me)12-HV 7 before and after treatment with butelase-1.
as §1

For series [6] the following is noted: enzyme bond, 37.0 °C.
[7] abbreviates: the molecule shown is the open-chain precursor, 102-membered ring, butelase-1 (0.01 eq), 20 mM PBS pH 6.5, 0.4 mM.

“Also recorded” adds a separate entry of the source. Read-outs that look alike come from different tables or passages of the source. Starred links: 1 amine or outer side, 2 acyl side, 3 side chain; linkers in the order of their positions; H or OH if unused. Positions of bridges follow the written chain, without caps; N, C: chain ends. Non-standard residues stand in square brackets, D forms with d. Residues, ends and D or L forms follow the SMILES beside them. No end group written: not given here. *: point of attachment. N(OH) = N-hydroxy-L-asparagine, O=C(C[C@H](N[*:1])C(=O)[*:2])NO; NHOH = ON* Some results are limits rather than exact numbers.

Sequence of VyPAL2 (as listed by the source): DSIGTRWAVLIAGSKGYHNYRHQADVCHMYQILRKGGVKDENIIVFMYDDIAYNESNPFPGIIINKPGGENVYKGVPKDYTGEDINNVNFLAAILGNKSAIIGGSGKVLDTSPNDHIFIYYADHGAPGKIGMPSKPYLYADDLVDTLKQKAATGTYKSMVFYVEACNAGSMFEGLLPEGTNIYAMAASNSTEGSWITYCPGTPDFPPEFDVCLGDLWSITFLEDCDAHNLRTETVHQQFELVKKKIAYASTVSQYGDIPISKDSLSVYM

On to `CC[C@H](C)[C@H](N)C(=O)N[C@@H](CO)C(=O)N[C@@H](Cc1ccc(O)cc1)C(=O)NCC(=O)N[C@@H](CC(N)=O)C(=O)N[C@@H](CC(=O)NO)C(=O)N[C@@H](C)C(=O)N[C@@H](CC(C)C)C(=O)N[C@@H](CCSC)C(=O)N1CCC[C@H]1C(N)=O` [Peptide 9, ISYGNN(OH)ALMP] (H-ISYGND(NHOH)ALMP-NH2), for which the “improvement of MMP2 inhibitory activity over APP-IP 8” value in series [1] (replacement of Asp by Asn(OH)) amounted to 2.6 fold.

With `CC[C@H](C)[C@@H]1NC(=O)[C@H](CO)NC(=O)CNC(=O)[C@@H]2CCCN2C(=O)[C@H](CCSC)NC(=O)[C@H](CC(C)C)NC(=O)[C@H](C)NC(=O)[C@H](CC(=O)NO)NC(=O)[C@H](CCC(N)=O)NC(=O)CNC(=O)[C@H](Cc2ccc(O)cc2)NC(=O)[C@H](CO)NC1=O` [Peptide 11, cyclo[SISYGQN(OH)ALMPG]] (cyclo(ALMPGSISYGQD(NHOH))), in series [1] (APP-IP-derived peptides, 0.8 nM MMP2, 10 μM substrate, pH 7.5, 37° C., read-out: IC50 towards MMP2), the IC50 is over 100000 nM. Moreover, the Ki in series [1] (APP-IP-derived peptides, Ki=IC50/(1+[S]o/Km), read-out: Ki towards MMP2) is over 100000 nM.

With `CC[C@H](C)[C@@H]1NC(=O)[C@@H]2CSSC[C@H](NC(=O)[C@H](CC(=O)NO)NC(=O)[C@@H]3CSSC[C@H](NC1=O)C(=O)N[C@@H]([C@@H](C)O)C(=O)N[C@@H]([C@@H](C)CC)C(=O)N[C@@H](CO)C(=O)N[C@@H](Cc1ccc(O)cc1)C(=O)N3)C(=O)N[C@@H](CC(C)C)C(=O)N[C@H]1CSSC[C@H](NC(=O)[C@H](C(C)C)NC(=O)CNC(=O)[C@H](CCCNC(=N)N)NC(=O)[C@H](CCCNC(=N)N)NC1=O)C(=O)N[C@@H](CCCNC(=N)N)C(=O)N2` [Peptide 17] (cyclo(CD(NHOH)CLCRRGVCRCICTISY); disulfide 1-14, 3-12, 5-10 (inferred); ring closure inferred), the “stability in human serum” value in series [2] (after 16 h) was “remained intact”. Moreover, in series [1], the Ki was 2.8 nM, the “better MMP2 binding affinity than Asn-RTD-1 19” value turned out to be 13 fold, the “better MMP2 binding affinity than Asp-RTD-1 18” value is 2.3 fold and the “improvement of MMP2 Ki over linear Asn(OH)-APP-IP peptide 9” value came out at 8.2 fold. For the same compound, in series [1] (MMP2 over MMP9), the “more potent towards MMP2 than MMP9 (selectivity)” value is “about 1000 fold”.

With AIYRRGRLYRRDHV [Peptide 3], in series [3], the Kcat worked out at 0.454 ± 0.02 s⁻¹ and the Km was found to be 630 ± 19.5 µM.

With AIYRRGRLYRRDSL [Peptide 6], in series [4], the Kcat was found to be 0.581 ± 0.09 s⁻¹ and the Km stood at 2070 ± 407 µM.

As for AIYRRGRLYRRN(Me) HV [Peptide 7], in series [3], the “recognition by butelase-1 as substrate for cyclization” value is given as “not recognized”. Besides, in series [5], the “inhibition of butelase-1 cyclization of pB1 peptide” value is on record as “nor did it inhibit the cyclization; also recorded: didn't affect the cyclization rate of pB1”.

As for “AIYRRGRLYRRN(OH)HV (AIYRRGRLYRR[N(OH)]HV-NH2) [Peptide 2]”, in series [3], the “catalytic efficiency of butelase-1, fold higher than DHV peptide 3” value was found to be 48 fold; the “catalytic efficiency of butelase-1, fold lower than NHV peptide 1” value is about 6 fold; the Kcat came out at 3.46 ± 0.27 s⁻¹; the Km turned out to be 98.8 ± 17.8 µM.

As for “AIYRRGRLYRRN(OH)SL (AIYRRGRLYRR[N(OH)]SL-NH2) [Peptide 5]”, in series [4], the “catalytic efficiency of VyPAL2, fold higher than DSL peptide 6” value is listed as 28 fold; the “catalytic efficiency of VyPAL2, fold lower than NSL peptide 4” value is on record as about 14 fold; the Kcat came to 0.942 ± 0.082 s⁻¹; the Km was 120 ± 19.2 µM.

As for AIYRRGRLYRRNHV [Peptide 1], in series [3], the Kcat was 14.86 ± 0.34 s⁻¹ and the Km came out at 67.5 ± 2.8 µM.

For the compound AIYRRGRLYRRNSL [Peptide 4], in series [4], the Kcat stood at 4.56 ± 0.24 s⁻¹ and the Km was 42.5 ± 8.83 µM.

In series [6] (the molecule shown is the open-chain precursor, 42-membered ring, butelase-1 (0.01 eq), 20 mM PBS pH 6.5, 0.4 mM), “H-Gly-Arg-Cys-Thr-Lys-Ser-Ile-Pro-Pro-Ile-Cys-Phe-Pro-Asp-Ile-Val-NH2?” came in with a ring closure, conversion of 0%.

In series [6] (setting [7]), “H-Gly-Gly-Val-Cys-Pro-Lys-Ile-Leu-Lys-Lys-Cys-Arg-Arg-Asp-Ser-Asp-Cys-Pro-Gly-Ala-Cys-Ile-Cys-Arg-Gly-Asn-Gly-Tyr-Cys-Gly-Ser-Gly-Ser-Asn(OH)-Ile-Val-NH2?” gave a ring closure, conversion of 95%.

Consider “H-Gly-Gly-Val-Cys-Pro-Lys-Ile-Leu-Lys-Lys-Cys-Arg-Arg-Asp-Ser-Asp-Cys-Pro-Gly-Ala-Cys-Ile-Cys-Arg-Gly-Asn-Gly-Tyr-Cys-Gly-Ser-Gly-Ser-Asp-Ile-Val-NH2?”, for which, in series [6] (setting [7]), the ring closure, conversion turned out to be 0%.

The compound “H-Gly-Leu-Pro-Val-Cys-Gly-Glu-Thr-Cys-Phe-Gly-Gly-Thr-Cys-Asn-Thr-Pro-Gly-Cys-Ser-Cys-Thr-Trp-Pro-Ile-Cys-Thr-Arg-Asp-Ile-Val-NH2?” gave a ring closure, conversion in series [6] (the molecule shown is the open-chain precursor, 87-membered ring, butelase-1 (0.01 eq), 20 mM PBS pH 6.5, 0.4 mM) of 0%.

Regarding “ISYGNDALMP-NH2 [Peptide 8, reference compound]”, the metabolised at 32 min, 100 μM in series [2] (in 32 min, read-out: degradation in human serum) was over 50%. The compound also gave a Ki in series [1] of 60 nM.

Consider c[FLaRGN(OH)FLaRGN(OH)], for which the ring closure, conversion in series [6] (36-membered ring, butelase-1 (0.01 eq), 20 mM PBS pH 6.5, 0.4 mM) came out at 90%.

Regarding cyclo[SYCN(OH)CLCRRGVCRCICTI], the ring closure, conversion in series [6] (54-membered ring, butelase-1 (0.04 eq), PBS pH 6.5, 0.1 mM) was 60%.
